Data: US8202855B2, “Substituted beta-lactams” (Allergan, Inc, priority 2008, dated 2012)

System: lashes and adjacent hairs of patients having glaucoma
Experiment: Observation of lashes in glaucoma patients treated in one eye
Format: in vivo
Conditions: glaucoma patients treated in only one eye
From the text: In the course of treating patients having glaucoma, treatment may only be appropriate in one eye. […] The lash appearance on the lids of the treated eyes would have appeared quite attractive if it represented a bilateral phenomenon. As a result of its asymmetric nature, the long lashes on one side could be construed as disturbing from a cosmetic standpoint. A systemic examination was preformed as a result of the asymmetric phenomenon. It soon became apparent that this altered appearance was not an isolated finding. […] Definite differences could be identified to varying degrees in the lashes and adjacent hairs of all patients who were taking the drug on a unilateral basis for longer than 6 months.
The changes in the lashes were apparent on gross inspection in several patients once attention was focused on the issue. In those with light colored hair and lashes, the differences were only seen easily with the aid of the high magnification and lighting capabilities of the slit lamp biomicroscope. In the course of glaucoma follow-up examination, attention is generally immediately focused on the eye itself. As a result of the high power magnification needed only one eye is seen at a time and the eye is seen at a high enough power that the lashes are not in focus. […]

SMILES: CCNC(=O)CCC/C=C\C[C@@H]1[C@@H](/C=C/[C@@H](O)CCc2ccccc2)[C@H](O)C[C@@H]1O [bimatoprost]
- lash appearance in treated eye versus non-treated eye: longer, thicker, and fuller in the treated eye than in the non-treated eye
